Experimental findings from ChEMBL document CHEMBL4507319 (2021) are described below.

The target of test [1] is Protein kinase C gamma type (Homo sapiens) (UniProt P05129). The test can be described thus: PKCgamma(h) Eurofins kinase panel. To be noted: Compound concentration 1.0 uM.
Test [2] deals with D(1A) dopamine receptor (Homo sapiens) (UniProt P21728). As to conditions: Compound concentration 10.0 uM.
Another test relates to NCI-H520. Kind of test: NCI- H520 cell line Proliferation assay. Format: functional, Homo sapiens. As to conditions: time 3 day.
Test [3] has as its target T1, cGMP-dependent protein kinase 2 (Homo sapiens) (UniProt Q13237).
T1 sequence (whole entry): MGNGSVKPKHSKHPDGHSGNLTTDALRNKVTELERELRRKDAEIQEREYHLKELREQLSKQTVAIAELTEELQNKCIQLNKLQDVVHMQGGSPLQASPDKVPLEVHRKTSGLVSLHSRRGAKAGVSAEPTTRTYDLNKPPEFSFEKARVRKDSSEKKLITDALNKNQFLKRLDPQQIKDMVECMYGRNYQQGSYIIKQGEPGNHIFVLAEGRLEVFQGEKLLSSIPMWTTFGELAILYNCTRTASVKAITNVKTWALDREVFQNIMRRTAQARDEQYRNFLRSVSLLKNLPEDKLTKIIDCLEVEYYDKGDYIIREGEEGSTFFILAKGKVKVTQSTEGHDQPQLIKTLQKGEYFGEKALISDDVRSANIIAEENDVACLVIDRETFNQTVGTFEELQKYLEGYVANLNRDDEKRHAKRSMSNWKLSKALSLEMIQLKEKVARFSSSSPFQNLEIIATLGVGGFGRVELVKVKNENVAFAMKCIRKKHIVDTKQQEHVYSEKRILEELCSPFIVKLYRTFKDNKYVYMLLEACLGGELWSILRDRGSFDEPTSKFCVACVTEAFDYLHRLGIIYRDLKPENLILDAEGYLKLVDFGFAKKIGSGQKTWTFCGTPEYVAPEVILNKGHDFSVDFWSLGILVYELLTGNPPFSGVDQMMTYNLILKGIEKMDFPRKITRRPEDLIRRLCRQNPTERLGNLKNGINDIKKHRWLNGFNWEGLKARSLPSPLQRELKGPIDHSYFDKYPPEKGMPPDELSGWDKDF
Kind of test: PRKG2(h) Eurofins kinase panel. To be noted: Compound concentration 1.0 uM.

Another test relates to OCI-Ly7. Kind of test: Oci-Ly-7 cell line Proliferation assay. Format: functional, Homo sapiens. To be noted: time 3 day.
Test [4] deals with Tyrosine-protein kinase JAK1 (Homo sapiens) (UniProt P23458). The test can be described thus: JAK1(h) Eurofins kinase panel. To be noted: Compound concentration 1.0 uM.
Test [5] addresses T2, Serine/threonine-protein kinase Nek2 (Homo sapiens) (UniProt P51955).
T2 sequence (whole entry): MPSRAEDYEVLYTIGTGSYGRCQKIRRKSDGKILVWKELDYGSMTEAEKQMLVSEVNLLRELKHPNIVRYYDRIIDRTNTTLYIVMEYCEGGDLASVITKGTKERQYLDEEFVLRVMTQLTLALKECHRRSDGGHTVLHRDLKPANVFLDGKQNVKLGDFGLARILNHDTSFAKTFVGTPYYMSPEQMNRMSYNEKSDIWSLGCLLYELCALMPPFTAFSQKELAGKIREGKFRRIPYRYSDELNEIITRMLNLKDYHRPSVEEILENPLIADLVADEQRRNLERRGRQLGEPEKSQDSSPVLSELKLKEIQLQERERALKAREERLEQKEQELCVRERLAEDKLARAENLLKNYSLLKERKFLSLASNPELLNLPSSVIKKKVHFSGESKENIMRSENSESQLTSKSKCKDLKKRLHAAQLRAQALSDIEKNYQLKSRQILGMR
The test can be described thus: NEK2(h) Eurofins kinase panel. As to conditions: Compound concentration 1.0 uM.

In test [6] the target is SRSF protein kinase 2 (Homo sapiens) (UniProt P78362). The test can be described thus: SRPK2(h) Eurofins kinase panel. As to conditions: Compound concentration 1.0 uM.
The target of test [7] is Casein kinase I isoform gamma-3 (Homo sapiens) (UniProt Q9Y6M4). Kind of test: CK1gamma3(h) Eurofins kinase panel. To be noted: Compound concentration 1.0 uM.
The target in test [8] is T3, Serine/threonine-protein kinase D2 (Homo sapiens) (UniProt Q9BZL6).
T3 sequence (whole entry): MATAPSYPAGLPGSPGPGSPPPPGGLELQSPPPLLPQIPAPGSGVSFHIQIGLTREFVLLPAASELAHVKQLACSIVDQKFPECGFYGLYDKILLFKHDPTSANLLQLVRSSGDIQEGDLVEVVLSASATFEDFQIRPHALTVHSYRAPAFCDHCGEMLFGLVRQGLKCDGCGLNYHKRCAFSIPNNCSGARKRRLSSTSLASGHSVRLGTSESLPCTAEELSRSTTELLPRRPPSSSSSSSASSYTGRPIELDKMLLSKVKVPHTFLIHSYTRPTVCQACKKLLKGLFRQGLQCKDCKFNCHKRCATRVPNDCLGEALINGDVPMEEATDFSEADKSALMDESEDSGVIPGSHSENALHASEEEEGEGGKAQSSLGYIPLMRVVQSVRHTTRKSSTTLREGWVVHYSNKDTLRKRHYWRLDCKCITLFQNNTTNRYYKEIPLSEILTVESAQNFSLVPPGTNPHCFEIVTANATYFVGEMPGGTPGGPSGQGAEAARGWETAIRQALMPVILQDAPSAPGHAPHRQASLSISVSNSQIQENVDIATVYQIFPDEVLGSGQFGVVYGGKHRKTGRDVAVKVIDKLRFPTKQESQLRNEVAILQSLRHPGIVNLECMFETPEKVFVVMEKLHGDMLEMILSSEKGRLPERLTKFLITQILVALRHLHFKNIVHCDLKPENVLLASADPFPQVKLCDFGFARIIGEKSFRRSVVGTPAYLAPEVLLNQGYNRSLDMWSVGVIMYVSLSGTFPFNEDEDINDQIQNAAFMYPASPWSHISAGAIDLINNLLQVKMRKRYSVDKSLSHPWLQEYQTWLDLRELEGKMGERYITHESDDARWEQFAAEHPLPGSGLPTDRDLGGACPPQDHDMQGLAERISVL
Kind of test: PKD2(h) Eurofins kinase panel. As to conditions: Compound concentration 1.0 uM.

The target of test [9] is Fibroblast growth factor receptor 3 (Homo sapiens) (UniProt P22607). The test can be described thus: FGFR3(h) Eurofins kinase panel. As to conditions: Compound concentration 1.0 uM.
The target in test [10] is MAPK/MAK/MRK overlapping kinase (Homo sapiens) (UniProt Q9UQ07). Kind of test: MOK(h) Eurofins kinase panel. To be noted: Compound concentration 1.0 uM.
In test [11] the target is Bone morphogenetic protein receptor type-1B (Homo sapiens) (UniProt O00238). Kind of test: ALK6(h) Eurofins kinase panel. To be noted: Compound concentration 1.0 uM.
Test [12] addresses Ribosomal protein S6 kinase alpha-2 (Homo sapiens, UniProt Q15349). To be noted: Compound concentration 1.0 uM.
The next test has as its system SNU-16. The test can be described thus: Snu16 cell line Proliferation assay. It is filed as functional, Homo sapiens. To be noted: time 3 day.

Sequence of Fibroblast growth factor receptor 3 (Homo sapiens) (P22607 23-806 limits assumed): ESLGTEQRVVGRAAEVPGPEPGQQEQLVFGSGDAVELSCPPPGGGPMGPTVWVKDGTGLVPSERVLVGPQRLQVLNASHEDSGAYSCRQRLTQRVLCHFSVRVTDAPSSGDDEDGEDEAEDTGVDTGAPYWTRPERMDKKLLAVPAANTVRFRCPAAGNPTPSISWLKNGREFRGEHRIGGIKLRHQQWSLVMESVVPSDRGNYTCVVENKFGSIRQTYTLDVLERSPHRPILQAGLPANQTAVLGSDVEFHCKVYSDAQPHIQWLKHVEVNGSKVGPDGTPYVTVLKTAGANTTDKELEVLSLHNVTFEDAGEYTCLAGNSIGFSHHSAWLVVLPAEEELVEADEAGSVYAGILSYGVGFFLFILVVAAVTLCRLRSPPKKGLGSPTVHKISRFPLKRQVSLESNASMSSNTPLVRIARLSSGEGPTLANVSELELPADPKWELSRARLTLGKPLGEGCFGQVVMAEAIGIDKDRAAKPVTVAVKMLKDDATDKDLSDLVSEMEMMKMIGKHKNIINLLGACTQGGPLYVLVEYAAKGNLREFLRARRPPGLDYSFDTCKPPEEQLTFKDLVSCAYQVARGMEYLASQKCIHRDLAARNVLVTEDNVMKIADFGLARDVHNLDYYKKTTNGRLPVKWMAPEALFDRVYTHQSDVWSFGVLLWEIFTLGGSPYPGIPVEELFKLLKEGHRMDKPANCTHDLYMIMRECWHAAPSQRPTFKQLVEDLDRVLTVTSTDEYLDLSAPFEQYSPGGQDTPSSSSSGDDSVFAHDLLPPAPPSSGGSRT
Sequence of Casein kinase I isoform gamma-3 (Homo sapiens) (Q9Y6M4 whole entry, looked up, canonical isoform): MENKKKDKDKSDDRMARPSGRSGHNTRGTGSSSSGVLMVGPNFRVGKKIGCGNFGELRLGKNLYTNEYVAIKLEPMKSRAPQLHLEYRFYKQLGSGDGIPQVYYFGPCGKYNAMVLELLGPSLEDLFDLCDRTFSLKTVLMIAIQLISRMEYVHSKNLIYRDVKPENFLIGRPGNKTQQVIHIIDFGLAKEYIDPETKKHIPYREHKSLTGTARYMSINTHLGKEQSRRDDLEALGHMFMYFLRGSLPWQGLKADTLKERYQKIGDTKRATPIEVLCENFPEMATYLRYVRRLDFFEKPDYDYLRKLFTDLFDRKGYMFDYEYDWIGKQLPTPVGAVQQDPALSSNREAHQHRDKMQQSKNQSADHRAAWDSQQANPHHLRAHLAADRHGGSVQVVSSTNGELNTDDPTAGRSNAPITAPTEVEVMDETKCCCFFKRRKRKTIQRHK
Sequence of D(1A) dopamine receptor (Homo sapiens) (P21728 whole entry): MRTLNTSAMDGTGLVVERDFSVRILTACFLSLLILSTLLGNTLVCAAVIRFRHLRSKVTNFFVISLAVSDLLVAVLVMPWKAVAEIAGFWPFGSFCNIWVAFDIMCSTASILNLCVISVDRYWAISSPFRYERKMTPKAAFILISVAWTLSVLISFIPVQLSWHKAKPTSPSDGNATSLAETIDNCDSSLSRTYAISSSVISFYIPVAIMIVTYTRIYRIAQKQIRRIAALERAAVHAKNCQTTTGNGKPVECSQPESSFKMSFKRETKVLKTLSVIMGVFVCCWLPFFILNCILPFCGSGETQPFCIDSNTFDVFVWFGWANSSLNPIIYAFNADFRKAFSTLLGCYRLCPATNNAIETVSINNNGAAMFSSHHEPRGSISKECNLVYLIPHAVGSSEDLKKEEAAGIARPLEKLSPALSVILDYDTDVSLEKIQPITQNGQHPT
Sequence of Bone morphogenetic protein receptor type-1B (Homo sapiens) (O00238 whole entry): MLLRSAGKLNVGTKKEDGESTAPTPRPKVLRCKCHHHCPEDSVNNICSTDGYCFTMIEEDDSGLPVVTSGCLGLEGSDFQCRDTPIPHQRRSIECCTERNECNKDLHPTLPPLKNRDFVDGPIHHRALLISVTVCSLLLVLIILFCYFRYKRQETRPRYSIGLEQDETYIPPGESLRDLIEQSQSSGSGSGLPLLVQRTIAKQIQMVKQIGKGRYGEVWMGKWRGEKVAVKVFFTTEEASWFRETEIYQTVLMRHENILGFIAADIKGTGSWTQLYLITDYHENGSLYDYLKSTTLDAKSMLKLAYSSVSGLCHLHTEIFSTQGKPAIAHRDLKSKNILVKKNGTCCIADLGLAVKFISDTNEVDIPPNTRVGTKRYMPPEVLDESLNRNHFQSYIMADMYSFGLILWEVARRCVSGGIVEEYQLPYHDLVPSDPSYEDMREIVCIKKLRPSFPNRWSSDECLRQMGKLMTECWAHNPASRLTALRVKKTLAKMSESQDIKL
Sequence of Tyrosine-protein kinase JAK1 (Homo sapiens) (P23458 whole entry): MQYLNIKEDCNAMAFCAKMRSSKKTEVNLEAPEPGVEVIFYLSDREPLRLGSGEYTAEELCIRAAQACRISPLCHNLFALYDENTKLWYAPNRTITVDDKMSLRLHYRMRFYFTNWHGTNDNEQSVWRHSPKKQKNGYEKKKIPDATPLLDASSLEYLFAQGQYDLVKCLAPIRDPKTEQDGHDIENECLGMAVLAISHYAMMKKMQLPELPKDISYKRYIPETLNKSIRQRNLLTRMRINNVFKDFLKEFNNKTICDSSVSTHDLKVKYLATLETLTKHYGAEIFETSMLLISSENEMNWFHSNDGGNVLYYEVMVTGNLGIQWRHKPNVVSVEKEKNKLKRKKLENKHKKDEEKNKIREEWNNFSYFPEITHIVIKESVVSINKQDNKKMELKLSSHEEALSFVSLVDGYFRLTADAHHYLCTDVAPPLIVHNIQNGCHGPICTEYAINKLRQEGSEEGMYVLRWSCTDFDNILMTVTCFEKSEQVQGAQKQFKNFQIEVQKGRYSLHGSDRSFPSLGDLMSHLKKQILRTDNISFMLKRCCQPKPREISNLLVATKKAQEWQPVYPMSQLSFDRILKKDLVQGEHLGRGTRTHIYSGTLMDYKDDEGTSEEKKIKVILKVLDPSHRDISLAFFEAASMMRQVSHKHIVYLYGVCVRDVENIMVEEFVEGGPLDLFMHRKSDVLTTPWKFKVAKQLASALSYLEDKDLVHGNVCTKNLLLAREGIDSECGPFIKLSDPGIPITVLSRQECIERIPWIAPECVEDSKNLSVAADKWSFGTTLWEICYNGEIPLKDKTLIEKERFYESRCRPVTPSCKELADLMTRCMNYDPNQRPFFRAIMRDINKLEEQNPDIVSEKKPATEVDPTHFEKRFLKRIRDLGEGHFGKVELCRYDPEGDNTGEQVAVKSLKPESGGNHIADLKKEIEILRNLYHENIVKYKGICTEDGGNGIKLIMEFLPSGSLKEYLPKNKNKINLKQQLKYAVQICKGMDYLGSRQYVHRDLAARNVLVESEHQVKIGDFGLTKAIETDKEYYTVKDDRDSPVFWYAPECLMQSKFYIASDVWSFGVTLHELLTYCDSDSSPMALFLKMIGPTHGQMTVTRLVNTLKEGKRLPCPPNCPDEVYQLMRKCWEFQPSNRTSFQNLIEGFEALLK
Sequence of Ribosomal protein S6 kinase alpha-2 (Q15349 whole entry): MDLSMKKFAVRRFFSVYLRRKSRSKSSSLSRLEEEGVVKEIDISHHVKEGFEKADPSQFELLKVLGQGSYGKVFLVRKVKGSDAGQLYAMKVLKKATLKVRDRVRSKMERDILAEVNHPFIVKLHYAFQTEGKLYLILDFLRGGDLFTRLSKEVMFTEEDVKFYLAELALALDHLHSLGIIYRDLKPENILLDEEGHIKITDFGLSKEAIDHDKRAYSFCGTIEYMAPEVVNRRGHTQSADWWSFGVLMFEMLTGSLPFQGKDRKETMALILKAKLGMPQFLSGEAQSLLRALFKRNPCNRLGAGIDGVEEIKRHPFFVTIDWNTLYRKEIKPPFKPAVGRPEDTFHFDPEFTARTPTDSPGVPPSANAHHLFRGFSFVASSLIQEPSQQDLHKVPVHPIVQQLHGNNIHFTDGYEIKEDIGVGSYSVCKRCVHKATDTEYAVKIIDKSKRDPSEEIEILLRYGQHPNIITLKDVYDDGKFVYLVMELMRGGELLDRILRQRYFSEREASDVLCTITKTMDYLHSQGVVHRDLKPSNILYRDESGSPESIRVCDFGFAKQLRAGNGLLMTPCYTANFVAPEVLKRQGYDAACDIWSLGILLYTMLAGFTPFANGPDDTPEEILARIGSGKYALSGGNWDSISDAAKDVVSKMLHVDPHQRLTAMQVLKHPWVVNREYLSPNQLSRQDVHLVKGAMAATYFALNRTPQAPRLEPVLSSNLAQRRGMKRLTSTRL

As for `CCc1ccccc1C(=O)Nc1n[nH]c2c(C)c(F)c(C3C(C#N)=C(C)N(C)C(C)=C3C#N)cc12` [BAY-3827], the % residual kinase activity in test [1] was 47%; in test [3], 79%; in test [4] it was 98%; in [5] it was 91%; in test [6], 83%; in [7] it was 105%. For the same compound, the % residual kinase activity was 98% in test [8]; 99% in [9]; 115% in test [10]; 99% in [11]; 5% in test [12]. In addition, the inhibition in test [2] was 67.4%. Moreover, the results for the “Cell Proliferation IC50” value in the test with NCI-H520, in the test on OCI-Ly7 and in the test with SNU-16 were 24.1 µM, 12.2 µM and 11.6 µM, respectively.

Usually inhibition stands for the share of the control response that was lost under treatment.
